Our source for the EC50 values is patent US9980945B2, “Benzoisoxazole-substituted compounds as MGLUR4 allosteric potentiators, compositions, and methods of treating neurological dysfunction” (Vanderbilt University, priority 2015, dated 2018).

pEC50: −log10 of the molar value.

The assay deals with mGluR4 (UniProt Q14833). The assay is described as follows: mGluR4 potentiation assay (EC50 for potentiation at EC20 agonist; fluorometric plate reader, Ca2+ or thallium dye). The format is cell-based. To be noted: potentiation of mGluR4; species of receptor not given. The procedure, abridged:
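CHO cells expressing human mGluR4, or HEK cells co-expressing rat mGluR4 and GIRK, loaded with Ca2+ or thallium dye. Potentiation EC50 and maximal potentiation from non-linear curve fitting; agonist-shift mode also run.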
For the compound `FCCc1noc2cc(Nc3n[nH]c4cccnc34)ccc12` [Example 177, 3-(2-fluoroethyl)-N-(1H-pyrazolo[4,3-b]pyridin-3-yl)-1,2-benzoxazol-6-amine], the negative logarithm of the EC50 (pEC50) was 6.05. Next, `COc1ccc(Cc2noc3cc(Nc4n[nH]c5cccnc45)ccc23)cn1` [Example 32, 3-((6-methoxypyridin-3-yl)methyl)-N-(1H-pyrazolo[4,3-b]pyridin-3-yl)benzo[d]isoxazol-6-amine]: 7.02; `c1cnc2c(Nc3ccc4c(C5CCC5)noc4c3)n[nH]c2c1` [Example 3, 3-cyclobutyl-N-(1H-pyrazolo[4,3-b]pyridin-3-yl)benzo[d]isoxazol-6-amine]: 6.05. Next, `Cc1noc2ccc(Nc3n[nH]c4ncccc34)cc12` [Example 24, 3-methyl-N-(1H-pyrazolo[3,4-b]pyridin-3-yl)benzo[d]isoxazol-5-amine]: 6.53; `CCCCC(F)c1noc2cc(Nc3n[nH]c4cccnc34)ccc12` (stereo not shown) [Example 147, 3-(1-fluoropentyl)-N-(1H-pyrazolo[4,3-b]pyridin-3-yl)-1H-benzoxazol-6-amine]: 5.83; `Cc1ccc(OCc2noc3cc(Nc4n[nH]c5cccnc45)ccc23)cn1` [Example 175, 3-[(6-methyl-3-pyridyl)oxymethyl]-N-(1H-pyrazolo[4,3-b]pyridin-3-yl)-1,2-benzoxazol-6-amine]: 6.23. Consider `CC(C)(C)CNCc1noc2cc(Nc3n[nH]c4cccnc34)ccc12` [Example 77, 3-[(2,2-dimethylpropylamino)methyl]-N-(1H-pyrazolo[4,3-b]pyridin-3-yl)-1,2-benzoxazol-6-amine], for which the pEC50 was 6.27. On to `Cc1noc2ccc(Nc3n[nH]c4ncc(F)cc34)cc12` [Example 104, N-(5-fluoro-1H-pyrazo!o[3,4-b]pyridin-3-yl)-3-methyl-1,2-benzoxazol-5-amine], for which the negative logarithm of the EC50 (pEC50) was 6.67. With `CCC(CC)c1noc2cc(Nc3n[nH]c4cccnc34)ccc12` [Example 85, 3-(1-ethylpropyl)-N-(1H-pyrazolo[4,3-b]pyridin-3-yl)-1,2-benzoxazol-6-amine], the negative logarithm of the EC50 (pEC50) was 6.88. As to `CCCC(C)c1noc2cc(Nc3n[nH]c4cccnc34)ccc12` (stereo not shown) [Example 94, 3-(1-methylbutyl)-N-(1H-pyrazolo[4,3-b]pyridin-3-yl)-1,2-benzoxazol-6-amine], the pEC50 was 6.93. On to `O=C(Cc1noc2cc(Nc3n[nH]c4cccnc34)ccc12)N1CCCC1c1ccccn1` (stereo not shown) [Example 162], for which the negative-log EC50 (pEC50) was less than 5.00.

In the case of `Cn1ncc2cc(Cc3noc4cc(Nc5n[nH]c6cccnc56)ccc34)ccc21` [Example 112, 3-[(1-methylindazol-5-yl)methyl]-N-(1H-pyrazolo[4,3-b]pyridin-3-yl)-1,2-benzoxazol-6-amine], the negative logarithm of the EC50 (pEC50) was 7.13. The result for `CC(C)(C)Cc1noc2cc(Nc3n[nH]c4cccnc34)c(F)cc12` [Example 167, 3-(2,2-dimethylpropyl)-5-fluoro-N-(1H-pyrazolo[4,3-b]pyridin-3-yl)-1,2-benzoxazol-6-amine] reads less than 4.52; that for `FC(F)(F)CCc1noc2cc(Nc3n[nH]c4cccnc34)ccc12` [Example 109, N-(1H-pyrazolo[4,3-b]pyridin-3-yl)-3-(3,3,3-trifluoropropyl)-1,2-benzoxazol-6-amine], 6.38. As to `O=C(c1noc2cc(Nc3n[nH]c4cccnc34)ccc12)N1CCC(F)(F)C1` [Example 30, (6-((1H-pyrazolo[4,3-b]pyridin-3-yl)amino)benzo[d]isoxazol-3-yl)(3,3-difluoropyrrolidin-1-yl)methanone], the negative-log EC50 (pEC50) was less than 5.00.

As for `O=C(Cc1noc2cc(Nc3n[nH]c4ncccc34)ccc12)NC1CC(F)(F)C1` [Example 142, N-(33-difluorocyclobutyl)-2-[6-(1H pyrazolo[3,4-b]pyridin-3-ylamino)-1,2-benzoxazol-3-yl]acetamide], the negative logarithm of the EC50 (pEC50) was less than 5.00. Next, `O=C(Cc1noc2cc(Nc3n[nH]c4cccnc34)ccc12)N1CCN(CC(F)(F)F)CC1` [Example 161, 2-[6-(1H-pyrazolo[4,3-b]pyridin-3-ylamino)-1,2-benzoxazol-3-yl]-1-[4-(2,2,2-trifluoroethyl)piperazin-1-yl]ethanone]: 5.73.

With `CC(c1noc2cc(Nc3n[nH]c4cccnc34)ccc12)C(F)F` (stereo not shown) [Example 178, 3-(2,2-difluoro-1-methyl-ethyl)-N-(1H-pyrazolo[4,3-b]pyridin-3-yl)-1,2-benzoxazol-6-amine], the pEC50 is 5.77.

Regarding `O=C(Cc1noc2cc(Nc3n[nH]c4cccnc34)ccc12)N1CC(F)(F)C1` [Example 144, 1-(3,3-difluoroazetidin-1-yl)-2-[6-(1H-pyrazolo[4,3-b]pyridin-3-ylamino)-1,2-benzoxazol-3-yl]ethanone], the negative logarithm of the EC50 (pEC50) is 5.59. On to `CC(C)Cc1noc2cc(Nc3n[nH]c4nccnc34)ccc12` [Example 13, 3-isobutyl-N-(1H-pyrazolo[3,4-b]pyrazin-3-yl)benzo[d]isoxazol-6-amine], for which the negative-log EC50 (pEC50) was 6.07. In the case of `CC(NCC(C)(C)C)c1noc2cc(Nc3n[nH]c4cccnc34)ccc12` (stereo not shown) [Example 137, 3-[1-(2,2-dimethylpropylamino)ethyl]-N-(1H-pyrazolo[4,3-b]pyridin-3-yl)-1,2-benzoxazol-6-amine], the pEC50 was 6.09. With `CC(C)c1noc2cc(Nc3n[nH]c4ncccc34)ccc12` [Example 154, 3-isopropyl-N-(1H-pyrazolo[3,4-b]pyridin-3-yl)-1,2-benzoxazol-6-amine], the pEC50 is 6.23. Consider `O=C(NC(c1noc2cc(Nc3n[nH]c4cccnc34)ccc12)C(F)(F)F)c1nccs1` (stereo not shown) [Example 153, N-[2,2,2-trifluoro-1-[6-(1H-pyrazolo[4,3-b]pyridin-3-ylamino)-1,2-benzoxazol-3-yl]ethyl]thiazole-carboxamide], for which the pEC50 is 5.86. The result for `CC(C)(C)Cc1noc2cc(Nc3n[nH]c4cccnc34)ccc12` [Example 11, 3-neopentyl-N-(1H-pyrazolo[4,3-b]pyridin-3-yl)benzo[d]isoxazol-6-amine] reads 6.28; that for `c1cnc2c(Nc3ccc4c(OCC5CCCCO5)noc4c3)n[nH]c2c1` (stereo not shown) [Example 27, N-(1H-pyrazolo[4,3-b]pyridin-3-yl)-3-((tetrahydro-2H-pyran-2-yl)methoxy)benzo[d]isoxazole-6-amine], 5.89. For the compound `O=C(Cc1noc2cc(Nc3n[nH]c4cccnc34)ccc12)NC1CC(F)(F)C1` [Example 140, N-(3,3-difluorocyclobutyl)-2-[6-(1H-pyrazolo[4,3-b]pyridin-3-ylamino)-1,2-benzoxazol-3-yl]acetamide], the pEC50 was less than 5.00. The result for `CCCCC(F)(F)c1noc2cc(Nc3n[nH]c4ncccc34)ccc12` [Example 138, 3-(1,1-difluoropentyl)-N-(1H-pyrazolo[3,4-b]pyridin-3-yl)-1,2-benzoxazol-6-amine] reads less than 5.00; that for `CC(C)Cc1noc2cc(Nc3n[nH]c4ncccc34)ccc12` [Example 9, 3-isobutyl-N-(1H-pyrazolo[3,4-b]pyridin-3-yl)benzo[d]isoxazol-6-amine], 5.32.

One may read the pEC50 as −log10 of the EC50, conventionally taken in molar units.
